One may read the IC50 as the point on the concentration scale where inhibition reaches its midpoint. A higher IC50 goes with lower potency.

The first test concerns H358 cells. Kind of test: Cell activity experiment: activity test of H358 cells (MTT, 5 days). The test is classed as cell-based. The settings on record: 5 days incubation, absorbance 492 nm. The procedure, abridged:
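H358 cells seeded 90 μL at 55555 cells/mL, grown 24 h, then exposed to 3-fold serial compound dilutions (final top 10000 nM, 0.5% DMSO) in triplicate for 5 days at 37° C., 5% CO2. Viability by MTT (4 h), formazan dissolved in DMSO, absorbance at 492 nm.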
For the compound `C=CC(=O)N1CC[C@H]2[C@H]1CN2c1c(Cl)c(-c2cccc3c2CCCC3)cc2nc(OC[C@@]34CCCN3C[C@H](F)C4)ncc12` [Example 473], the IC50 was 35 nM. The same measure, in the same setting: next, `C=C(F)C(=O)N1CCN(c2nc(OCC3(CN4CCCC4)CC3)nc3c(F)c(-c4cccc5c4C4CC4C5)ncc23)C[C@@H]1CC#N` (single isomer, unassigned) [Example 868]: 6.6 nM.

The same test, now with this note: Homo sapiens, NCI-H358, 120 h, 5 days incubation, absorbance 492 nm.
Compound `C=CC(=O)N1CC[C@@H]2[C@H]1CN2c1nc(OC[C@@H]2CCCN2C)nc2c(F)c(-c3cccc4c3CCCC4)ncc12` [Example 9, 1-((1R,5R)-6-(8-fluoro-2-(((S)-1-methylpyrrolidin-2-yl)methoxy)-7-(5,6,7,8-tetrahydronaphthalen-1-yl)pyridino[4,3-d]pyrimidin-4-yl)-2,6-diazabicyclo[3.2.0]hept-2-yl)prop-2-en-1-one] gave an IC50 of 10 nM.

With `C=C(F)C(=O)N1CCN(c2nc(OC[C@@]34CCCN3CC(F)C4)nc3cc(-c4cccc5cccc(Cl)c45)ccc23)C[C@@H]1CC#N` (stereo partly shown) [Example 84], half-maximal inhibition (IC50) was put at 10 nM.

As for `C=CC(=O)N1CC[C@H]2[C@H]1CN2c1nc(OC[C@@H]2CCCN2C)nc2c(F)c(-c3cccc4cccc(Cl)c34)ccc12` [Example 370, 1-((1R,5S)-6-(7-(8-chloronaphthalen-1-yl)-8-fluoro-2-(((S)-1-methylpyrrolidin-2-yl)methoxy)quinazolin-4-yl)-2,6-diazabicyclo[3.2.0]hept-2-yl)prop-2-en-1-one], the IC50 worked out at 10 nM. `C=CC(=O)N1CCN(c2nc(OCC34CCCN3CCC4)nc3c(F)c(-c4cccc5c4C4CC4C5)ncc23)C[C@@H]1CC#N` (stereo partly shown) [Example 61] displayed an IC50 of 0.71 nM. In the case of `C=C(F)C(=O)N1CCN(C2=C(C#N)C(OC[C@@H]3C[C@@H](F)CN3C)=NC3C=C(c4cccc5ccc(F)c(Cl)c45)C=CC23)C[C@@H]1CC#N` (stereo partly shown) [Example 626], inhibition was half-maximal at 1500 nM (IC50). For `C=CC(=O)N1CC[C@H]2[C@H]1CN2c1nc(OCC23CCCN2CCC3)nc2cc(-c3cccc4cccc(Cl)c34)c(Cl)cc12` [Example 471, 1-((1R,5S)-6-(6-chloro-7-(8-chloronaphthalen-1-yl)-2-((tetrahydro-1H-pyrrolizin-7a(5H)-yl)methoxy)quinazolin-4-yl)-2,6-diazabicyclo[3.2.0]hept-2-yl)prop-2-en-1-one], the IC50 came to 45 nM. The same measure, in the same setting: the figure for `C=CC(=O)N1CC[C@@H]2[C@H]1CN2c1nc(OC[C@@H]2CCCN2C)nc2c(F)c(-c3cncc4c3CCCC4)ncc12` [Example 41] is 15 nM.

Compound `C=C(F)C(=O)N1CCN(c2nc(OCC34CCCN3CCC4)nc3cc(-c4cncc5c4CCCC5)ccc23)C[C@@H]1CC#N` [Example 147] had an IC50 of 18 nM. Same read-out and setting: next, `C=CC(=O)N1CCN(c2nc(OC[C@@]34CCCN3C[C@H](F)C4)nc3c(F)c(-c4cccc5c4C4CC4C5)ncc23)C[C@@H]1CC#N` (stereo partly shown) [Example 67]: 0.07 nM; `C=CC(=O)N1CC[C@@H]2[C@H]1CN2c1nc(OC[C@@H]2C[C@@H](F)CN2C)nc2c(F)c(-c3cncc4c3CCCC4)ncc12` [Example 43]: 16 nM; `C=CC(=O)N1CCN(c2nc(OC[C@@H]3C[C@@H](F)CN3C)nc3cc(-c4cccc5ccc(F)c(Cl)c45)ccc23)C[C@@H]1CC#N` [Example 95]: 8 nM. In turn, `C=CC(=O)N1CCN(c2nc(OC[C@@]34CCCN3C[C@H](F)C4)nc3c(F)c(-c4cccc5ccc(F)c(Cl)c45)ccc23)C[C@@H]1CC#N` [Example 368] showed a half-inhibitory concentration (IC50) of 0.11 nM.

In the case of `C=C(F)C(=O)N1CCN(c2nc(OC[C@@H]3CCCN3C)nc3cc(-c4cncc5cccc(Cl)c45)ccc23)C[C@@H]1CC#N` [Example 127], 72 nM corresponded to half-maximal inhibition (IC50). `C=C(F)C(=O)N1CCN(c2nc(OC[C@@]34CCCN3C[C@H](F)C4)nc3c(F)c(-c4cccc5c4CCCC5)ncc23)C[C@@H]1CC#N` [Example 8, 2-((S)-4-(8-fluoro-2-(((2R,7aS)-2-fluorotetrahydro-1H-pyrrolizin-7a(5H)-yl)methoxy)-7-(5,6,7,8-tetrahydronaphthalen-1-yl)pyridino[4,3-d]pyrimidin-4-yl)-1-(2-fluoroacryloyl)piperazin-2-yl)acetonitrile]: inhibition was half-maximal at 0.64 nM (IC50).

`C=C(F)C(=O)N1CCN(c2nc(OCC34CCCN3C[C@H](F)C4)nc3cc(-c4cccc5ccc(F)c(Cl)c45)ccc23)C[C@@H]1CC#N` (stereo partly shown) [Example 100] registered an IC50 of 6 nM. Regarding `C=C(F)C(=O)N1CCN(c2nc(OC[C@@H]3CCCN3C)nc3c(OC4CC4)c(-c4cccc5ccc(F)c(Cl)c45)c(Cl)cc23)C[C@@H]1CC#N` [Example 924], the IC50 worked out at 49 nM. The same measure, in the same setting: next, `C=C(F)C(=O)N1CCN(c2nc(OCC34CCCN3C[C@H](F)C4)nc3cc(-c4cccc5c4CCCC5)ccc23)C[C@@H]1CC#N` (stereo partly shown) [Example 117]: 30 nM; `C=CC(=O)N1CCN(c2nc(OC[C@@H]3CCCN3C)nc3nc(-c4cccc5c4CCCC5)ccc23)C[C@@H]1CC#N` [Example 77, 2-((S)-1-acryloyl-4-(2-(((S)-1-methylpyrrolidin-2-yl)methoxy)-7-(5,6,7,8-tetrahydronaphthalen-1-yl)pyridino[2,3-d]pyrimidin-4-yl)piperazin-2-yl)acetonitrile]: 55 nM. Consider `C=CC(=O)N1CCN(c2nc(OC[C@@H]3CCCN3C)nc3c(F)c(-c4cccc5ccsc45)ncc23)C[C@@H]1CC#N` [Example 51, 2-((S)-1-acryloyl-4-(7-(benzo[b]thien-7-yl)-8-fluoro-2-(((S)-1-methylpyrrolidin-2-yl)methoxy)pyridino[4,3-d]pyrimidin-4-yl)piperazin-2-yl)acetonitrile], for which the IC50 was 148 nM. The compound `C=CC(=O)N1CCN(c2nc(OCC34CCCN3CCC4)nc3nc(-c4cccc5cccc(Cl)c45)ccc23)C[C@@H]1CC#N` [Example 258, (S)-2-(1-acryloyl-4-(7-(8-chloronaphthalen-1-yl)-2-((tetrahydro-1H-pyrrolizin-7a(5H)-yl)methoxy)pyridino[2,3-d]pyrimidin-4-yl)piperazin-2-yl)acetonitrile] came in with an IC50 of 15 nM. The compound `C=C(F)C(=O)N1CC[C@@H]2[C@H]1CN2c1nc(OC[C@@H]2C[C@@H](F)CN2C)nc2c(F)c(-c3cncc4c3CCCC4)ncc12` [Example 44] registered an IC50 of 64 nM. The same measure, in the same setting: next, `C=CC(=O)N1CCN(c2nc(OC[C@@H]3CCCN3C)nc3c(F)c(-c4cccc5ccc(F)c(Cl)c45)c(F)cc23)C[C@@H]1CC#N` [Example 431]: 148 nM; `C=CC(=O)N1CCN(c2nc(OC[C@@H]3CCCN3C)nc3c(F)c(-c4cccc5cccc(Cl)c45)c(F)cc23)C[C@@H]1CC#N` [Example 430, 2-((S)-1-acryloyl-4-(6,8-difluoro-7-(8-chloronaphthalen-1-yl)-2-(((S)-1-methylpyrrolidin-2-yl)methoxy)quinazolin-4-yl)piperazin-2-yl)acetonitrile]: 140 nM. As for `C=CC(=O)N1CCN(C2=C(C#N)C(OC[C@@]34CCCN3C[C@H](F)C4)=NC3C=C(c4cccc5ccc(F)c(Cl)c45)C=CC23)C[C@@H]1CC#N` (stereo partly shown) [Example 628], half-maximal inhibition (IC50) was put at 60 nM. `C=CC(=O)N1CCC2[C@H]1CN2c1nc(OC[C@@H]2CCCN2C)nc2c(F)c(-c3cccc4ccc(F)c(Cl)c34)ccc12` (stereo partly shown) [Example 371] showed an IC50 of 6 nM. With `C=C(F)C(=O)N1CCN(c2nc(OC[C@@H]3CCCN3C)nc3cc(N4CCCc5cccc(Cl)c54)ccc23)C[C@@H]1CC#N` [Example 619, 2-((S)-4-(7-(8-chloro-3,4-dihydroquinoline-1(2H)-yl)-2-(((S)-1-methylpyrrolidin-2-yl)methoxy)quinazolin-4-yl)-1-(2-fluoroacryloyl)piperazin-2-yl)acetonitrile], it took 496 nM to reach half-maximal inhibition (IC50).

In turn, `C=CC(=O)N1CCN(c2nc(OC[C@@H]3CCCN3C)nc3cc(-c4cccc5cccc(Cl)c45)c(F)cc23)C[C@@H]1CC#N` [Example 394, 2-((S)-1-acryloyl-4-(6-fluoro-7-(8-chloronaphthalen-1-yl)-2-(((S)-1-methylpyrrolidin-2-yl)methoxy)quinazolin-4-yl)piperazin-2-yl)acetonitrile] came in with an IC50 of 158 nM. In turn, `C=CC(=O)N1CCN(c2nc(OCC34CCCN3CCC4)nc3c(F)c(-c4cncc5cccc(Cl)c45)ccc23)C[C@@H]1CC#N` [Example 162, (S)-2-(1-acryloyl-4-(7-(5-chloroisoquinolin-4-yl)-8-fluoro-2-((tetrahydro-1H-pyrrolizin-7a(5H)-yl)methoxy)quinazolin-4-yl)piperazin-2-yl)acetonitrile] registered an IC50 of 2 nM. As to `C=CC(=O)N1CCN(c2nc(OC[C@@]34CCCN3C[C@H](F)C4)nc3c(F)c(-c4cccc5c4CCCC5)ncc23)C[C@@H]1CC#N` [Example 7, 2-((S)-1-acryloyl-4-(8-fluoro-2-(((2R,7aS)-2-fluorotetrahydro-1H-pyrrolizin-7a(5H)-yl)methoxy)-7-(5,6,7,8-tetrahydronaphthalen-1-yl)pyridino[4,3-d]pyrimidin-4-yl)piperazin-2-yl)acetonitrile], half-maximal inhibition (IC50) required 0.07 nM. Still for that read-out and setting: the figure for `C=CC(=O)N1CCN(c2c(C#N)c(OCC34CCCN3CCC4)nc3cc(-c4cccc5ccc(F)c(Cl)c45)ccc23)C[C@@H]1CC#N` [Example 620] is 138 nM; for `C=C(F)C(=O)N1CCN(c2nc(OC[C@@H]3C[C@@H](F)CN3C)nc3c(F)c(-c4cccc5c4CCCC5)ncc23)C[C@@H]1CC#N` [Example 6] it is 90 nM; for `C=CC(=O)N1CCN(c2nc(OC[C@@H]3CCCN3C)nc3c(F)c(-c4cccc5c4[C@@H]4C[C@@H]4C5)ncc23)C[C@@H]1CC#N` [Example 58, 2-((S)-1-acryloyl-4-(8-fluoro-2-(((S)-1-methylpyrrolidin-2-yl)methoxy)-7-((1aR,6aR)-1,1a,6,6a-tetrahydrocyclopropa[a]inden-2-yl)pyridino[4,3-d]pyrimidin-4-yl)piperazin-2-yl)acetonitrile] it is 0.81 nM.

Values taken from patent US20240109893A1, “PREPARATION AND APPLICATION METHOD OF HETEROCYCLIC COMPOUNDS AS KRAS INHIBITOR” (SHANGHAI KECHOW PHARMA, INC., priority 2020, published 2024).
